Measured values from US11440923B2, “Substituted macrocyclic indole derivatives” (Bayer Aktiengesellschaft, priority 2017, dated 2022).
Counter-ions that a name gives are not always drawn. Like-named read-outs stand apart in the source and are kept apart here.

Assays:
AMO-1 cells = assay: Antiproliferation assay AMO-1 (Assay 7); type: cell-based
Outline: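 72 h antiproliferation, 37 °C, CellTiter-Glo luminescence. Day 0 plate = CI; DMSO = C0; IC50 calculated from these.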

BCL-2 = BCL-2 (Homo sapiens (Human), UniProt P10415); assay: Protein-protein interaction assay BCL-2/Bad BH3 peptide (BCL-2 assay, TR-FRET); type: binding; settings: read-out: BCL-2 Assay IC50 (median)
BCL-2, sequence (P10415 1-211): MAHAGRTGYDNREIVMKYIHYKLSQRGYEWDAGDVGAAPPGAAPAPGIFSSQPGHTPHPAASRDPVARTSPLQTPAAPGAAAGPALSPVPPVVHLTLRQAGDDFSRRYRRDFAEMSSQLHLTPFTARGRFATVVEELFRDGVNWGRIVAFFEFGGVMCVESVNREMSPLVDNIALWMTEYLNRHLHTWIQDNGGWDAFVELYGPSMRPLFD
Outline: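 His-tagged BCL-2 (aa 1-211, E. coli, 1 nM) preincubated 10 min at 22° C with compound (0.1 nM-20 μM), then 1 nM biotinylated Bad BH3 peptide with anti-His-Eu/streptavidin-XL665 added. Buffer: 50 mM Tris pH 7, 100 mM NaCl, 50 mM KF, 2 mM DTT. Incubated 1 h at 22° C, then overnight at 4° C. 665/620 ratio normalized; IC50 by 4-parameter fit.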

SUDHL5 cells [1] = assay: Induction of caspase-3/7 activity in SUDHL5 cells (Assay 4); type: cell-based
Outline: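 Caspase-3/7 activity measured in DLBCL lines after 3 h compound exposure at 37 °C, following overnight plating; Caspase-Glo 3/7 luminescence read after 1 h at 37 °C. Medium-only background subtracted, values normalized to mean of DMSO-treated cells.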

SUDHL5 cells [2] = assay: Induction of cytotoxicity in SUDHL5 cells (Assay 6); type: cell-based; settings: 5 h, CellTiter-Glo, read-out: Cytotox SUDHL5 IC50 (median)
Outline: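 SUDHL5 and SUDHL10 cells plated and held overnight at 37° C, then incubated 5 h at 37° C with compound. Viability measured by CellTiter-Glo luminescence after 15 min shaking at room temperature. Cell-free medium wells served as control.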

[3] = read-out: Antiproli AMO-1 IC50 median, 72 h, CellTiter-Glo
[4] = read-out: Caspase SUDHL5 EC50 (median), caspase-3/7 induction, 3 h
[5] = Homo sapiens, AMO1, 72 h, 72 h, CellTiter-Glo, read-out: Antiproli AMO-1 IC50 median
[6] = Homo sapiens, SU-DHL-5, 3 h, caspase-3/7 induction, 3 h, read-out: Caspase SUDHL5 EC50 (median)

Compound | IC50 (AMO-1 cells; [3]) [nM] | IC50 (BCL-2) [nM] | EC50 (SUDHL5 cells [1]; [4]) [nM] | IC50 (SUDHL5 cells [2]) [nM] | IC50 (AMO-1 cells; 72 h, CellTiter-Glo, read-out: Antiproli AMO-1 IC50 median) [nM] | EC50 (SUDHL5 cells [1]; caspase-3/7 induction, 3 h, read-out: Caspase SUDHL5 EC50 (median)) [nM] | IC50 (AMO-1 cells; Homo sapiens, AMO1, 72 h, read-out: Antiproli AMO-1 IC50 median, 72 h, CellTiter-Glo) [nM] | EC50 (SUDHL5 cells [1]; Homo sapiens, SU-DHL-5, 3 h, read-out: Caspase SUDHL5 EC50 (median), caspase-3/7 induction, 3 h) [nM] | IC50 (SUDHL5 cells [2]; Homo sapiens, SU-DHL-5, 5 h) [nM] | IC50 (AMO-1 cells; [5]) [nM] | EC50 (SUDHL5 cells [1]; [6]) [nM]
CCc1c2c(nn1C)C(CCN1CCOCC1)OCCCCn1c(C(=O)O)c(CCCOc3cccc4ccccc34)c3ccc(F)c-2c31 (single isomer, unassigned; enantiomer 2) [Example 12, 3-ethyl-4-fluoro-2-methyl-15-[2-(morpholin-4-yl)ethyl]-7-{3-[(naphthalen-1-yl)oxy]propyl}-2,10,11,12,13,15-hexahydropyrazolo[4′,3′:9,10][1,6]oxazacycloundecino[8,7,6-hi]indole-8-carboxylic Acid—N-ethylethanamine Salt (Enantiomer 2)] | 12100 | > 20000 | 2700 | 3300 |  |  |  |  |  |  | 
Cc1c2c(nn1C)C(CCN1CCOCC1)OCCCCn1c(C(=O)O)c(CCCOc3cccc4ccccc34)c3ccc(Cl)c-2c31 (single isomer, unassigned; enantiomer 2) [Example 15, 4-chloro-2,3-dimethyl-15-[2-(morpholin-4-yl)ethyl]-7-{3-[(naphthalen-1-yl)oxy]propyl}-2,10,11,12,13,15-hexahydropyrazolo[4′,3′:9,10][1,6]oxazacycloundecino[8,7,6-hi]indole-8-carboxylic Acid (Enantiomer 2)] |  | > 20000 |  | 2500 | 10500 | 2300 |  |  |  |  | 
Cc1c2c(nn1C)C(CCN1CCOCC1)OCCCCn1c(C(=O)O)c(CCCOc3cccc4cc(F)ccc34)c3ccc(Cl)c-2c31 (single isomer, unassigned; enantiomer 1) [Example 17, 4-chloro-7-{3-[(6-fluoronaphthalen-1-yl)oxy]propyl}-2,3-dimethyl-15-[2-(morpholin-4-yl)ethyl]-2,10,11,12,13,15-hexahydropyrazolo[4′,3′:9,10][1,6]oxazacycloundecino[8,7,6-hi]indole-8-carboxylic Acid—N-ethylethanamine (Enantiomer 1)] |  | > 20000 |  |  |  |  | 28.2 | 5.8 | 11 |  | 
CCc1c2c(nn1C)C(CC(C)(C)O)OCCCCn1c(C(=O)O)c(CCCOc3cccc4cc(F)ccc34)c3ccc(Cl)c-2c31 (racemic) [Example 52, (rac)-4-chloro-3-ethyl-7-{3-[(6-fluoronaphthalen-1-yl)oxy]propyl}-(15-rac)-(2-hydroxy-2-methylpropyl)-2-methyl-2,10,11,12,13,15-hexahydropyrazolo[4′,3′:9,10][1,6]oxazacycloundecino[8,7,6-hi]indole-8-carboxylic Acid] |  | 15900 |  |  |  |  |  |  | 380 | 107 | 420
Cc1c2c(nn1C)C(CCN1CCOCC1)OCCCCn1c(C(=O)O)c(CCCOc3cccc4ccccc34)c3ccc(Cl)c-2c31 (racemic) [Example 13, (rac)-4-chloro-2,3-dimethyl-15-[2-(morpholin-4-yl)ethyl]-7-{3-[(naphthalen-1-yl)oxy]propyl}-2,10,11,12,13,15-hexahydropyrazolo[4′,3′:9,10][1,6]oxazacycloundecino[8,7,6-hi]indole-8-carboxylic Acid] |  | > 20000 |  |  |  |  |  |  | 89 | 191 | 77
Cc1c2c(nn1C)C(C1CC1)OCCCCn1c(C(=O)O)c(CCCOc3cccc4ccccc34)c3ccc(Cl)c-2c31 (single isomer, unassigned; enantiomer 2) [Example 36, (−)-4-chloro-15-cyclopropyl-2,3-dimethyl-7-{3-[(naphthalen-1-yl)oxy]propyl}-2,10,11,12,13,15-hexahydropyrazolo[4′,3′:9,10][1,6]oxazacycloundecino[8,7,6-hi]indole-8-carboxylic Acid N-ethylethanamine Salt (Enantiomer 2)] | 15800 | 14600 | > 33000 | 21000 |  |  |  |  |  |  | 
CCC1OCCCCn2c(C(=O)O)c(CCCOc3cccc4ccccc34)c3ccc(Cl)c(c32)-c2c1nn(C)c2C (single isomer, unassigned; enantiomer 1) [Example 29, (+)-4-chloro-15-ethyl-2,3-dimethyl-7-{3-[(naphthalen-1-yl)oxy]propyl}-2,10,11,12,13,15-hexahydropyrazolo[4′,3′:9,10][1,6]oxazacycloundecino[8,7,6-hi]indole-8-carboxylic Acid—N-ethylethanamine Salt (Enantiomer 1)] | 4350 | > 20000 | 840 | 1100 |  |  |  |  |  |  | 
CCc1c2c(nn1C)C(CCN1CCOCC1)OCCCCn1c(C(=O)O)c(CCCOc3cccc4ccccc34)c3ccc(F)c-2c31 (racemic) [Example 10, (rac)-3-ethyl-4-fluoro-2-methyl-15-[2-(morpholin-4-yl)ethyl]-7-[3-(naphthalen-1-yloxy)propyl]-2,10,11,12,13,15-hexahydropyrazolo[4′,3′:9,10][1,6]oxazacycloundecino[8,7,6-hi]indole-8-carboxylic Acid] |  | > 20000 |  |  |  |  |  |  | 140 | 412 | 110
CCc1c2c(nn1C)C(CCOC)OCCCCn1c(C(=O)O)c(CCCOc3cccc4cc(F)ccc34)c3ccc(Cl)c-2c31 (single isomer, unassigned; enantiomer 2) [Example 43, (−)-4-chloro-3-ethyl-7-{3-[(6-fluoronaphthalen-1-yl)oxy]propyl}-15-(2-methoxyethyl)-2-methyl-2,10,11,12,13,15-hexahydropyrazolo[4′,3′:9,10][1,6]oxazacycloundecino[8,7,6-hi]indole-8-carboxylic Acid—N-ethylethanamine Salt (Enantiomer 2)] | 20000 | 19300 | 20000 | 18000 |  |  |  |  |  |  | 
